Our source for the remaining activity and IC50 values is PMC7468911 (Nutrients, 2020).

Broadly, the IC50 is the concentration needed to halve the response being measured. Lower therefore signals greater potency in that assay.

Assay [1] deals with T1, ABCC11 (Homo sapiens, UniProt Q96J66).
T1 construct: full-length human ABCC11 WT
Briefly: biochemical. More on the design: Vesicle transport assay: ATP-dependent uptake of radiolabeled DHEA-S into ABCC11-expressing membrane vesicles, rapid filtration, scintillation counting. The following applies: ABCC11-mediated DHEA-S transport, % of control, 5 min, 37 °C. From the text: The inhibitory effects of the various target extracts and compounds on the ABCC11 function were examined using the in vitro vesicle transport assay, a well-established method to quantitatively evaluate ABC transporter function. For this purpose, the ATP-dependent transport of [1,2,6,7-^3H(N)]-dehydroepiandrosterone sulfate (DHEA-S) (PerkinElmer, Waltham, MA, USA), which is an ABCC11 substrate, into the ABCC11-expressing and control plasma membrane vesicles was quantified following our previous study with some minor modifications in the rapid filtration technique, as described below. In brief, the plasma membrane vesicles (0.25 mg/mL or indicated concentrations) were incubated with [1,2,6,7-^3H(N)]-DHEA-S (100 nM or indicated concentrations) in a reaction mixture (total 20 μL: 10 mM Tris/HCl, 250 mM sucrose, 10 mM MgCl2, 10 mM creatine phosphate, 1 mg/mL creatine phosphokinase, 50 mM ATP or AMP as a substitute of ATP, and pH 7.4) for 5 min at 37 °C, either without (i.e., with only vehicle control) or with the individual target fractions/authentic chemicals at the indicated concentrations. As the vehicle control, 1% water was used for plant extracts; 1% methanol (Nacalai Tesque) or 1% dimethyl sulfoxide (DMSO; Nacalai Tesque) was used for the individual target fractions, as described below. Since stock solutions of authentic chemicals were prepared with DMSO at 10 mM, 1% DMSO was employed as the vehicle control for them. After incubation, the reaction mixture was mixed with 980 μL of an ice-cold stop buffer (2 mM EDTA, 0.25 M sucrose, 0.1 M NaCl, 10 mM Tris-HCl, and pH 7.4) and rapidly filtered on a membrane filter (MF-Millipore Membrane (HAWP02500; Millipore, Tokyo, Japan) for extract screening or Whatman™ Grade GF/F Glass Microfiber Filter Paper (GE Healthcare) for the other experiments). After washing with 5 mL of the ice-cold stop buffer three times, the plasma membrane vesicles trapped on the membrane filter were dissolved in Clear-sol II (Nacalai Tesque). Then, the radioactivity incorporated into the plasma membrane vesicles was measured with a liquid scintillator (Tri-Carb 3110TR; PerkinElmer). The transport activity in each group was calculated as the incorporated clearance (μL/mg protein/min = incorporated level of DHEA-S (disintegrations per minute (DPM)/mg protein/min)/DHEA-S level in the incubation mixture (DPM/μL)). ATP-dependent DHEA-S transport was calculated by the difference in transport activity with and without ATP. Similarly, ABCC11-mediated DHEA-S transport activity was calculated by subtracting the ATP-dependent DHEA-S transport activity of control plasma membrane vesicles from that of ABCC11-expressing ones. Unless otherwise indicated, effects of the target fractions/compounds on the ATP-dependent DHEA-S transport activity were also examined for the control plasma membrane vesicles.

For assay [2], the target named is T1, ABCC11. Briefly: cell-based. The settings on record: read-out: ABCC11-Mediated DHEA-S Transport (% of Control).
Assay [3] deals with T1, ABCC11. The assay can be described thus: inhibition of ATP-dependent [3H]-DHEA-S transport in plasma membrane vesicles from ABCC11-expressing […] cells. It is filed as biochemical.

The structures appear in SMILES notation.

T1 sequence (Q96J66 whole entry): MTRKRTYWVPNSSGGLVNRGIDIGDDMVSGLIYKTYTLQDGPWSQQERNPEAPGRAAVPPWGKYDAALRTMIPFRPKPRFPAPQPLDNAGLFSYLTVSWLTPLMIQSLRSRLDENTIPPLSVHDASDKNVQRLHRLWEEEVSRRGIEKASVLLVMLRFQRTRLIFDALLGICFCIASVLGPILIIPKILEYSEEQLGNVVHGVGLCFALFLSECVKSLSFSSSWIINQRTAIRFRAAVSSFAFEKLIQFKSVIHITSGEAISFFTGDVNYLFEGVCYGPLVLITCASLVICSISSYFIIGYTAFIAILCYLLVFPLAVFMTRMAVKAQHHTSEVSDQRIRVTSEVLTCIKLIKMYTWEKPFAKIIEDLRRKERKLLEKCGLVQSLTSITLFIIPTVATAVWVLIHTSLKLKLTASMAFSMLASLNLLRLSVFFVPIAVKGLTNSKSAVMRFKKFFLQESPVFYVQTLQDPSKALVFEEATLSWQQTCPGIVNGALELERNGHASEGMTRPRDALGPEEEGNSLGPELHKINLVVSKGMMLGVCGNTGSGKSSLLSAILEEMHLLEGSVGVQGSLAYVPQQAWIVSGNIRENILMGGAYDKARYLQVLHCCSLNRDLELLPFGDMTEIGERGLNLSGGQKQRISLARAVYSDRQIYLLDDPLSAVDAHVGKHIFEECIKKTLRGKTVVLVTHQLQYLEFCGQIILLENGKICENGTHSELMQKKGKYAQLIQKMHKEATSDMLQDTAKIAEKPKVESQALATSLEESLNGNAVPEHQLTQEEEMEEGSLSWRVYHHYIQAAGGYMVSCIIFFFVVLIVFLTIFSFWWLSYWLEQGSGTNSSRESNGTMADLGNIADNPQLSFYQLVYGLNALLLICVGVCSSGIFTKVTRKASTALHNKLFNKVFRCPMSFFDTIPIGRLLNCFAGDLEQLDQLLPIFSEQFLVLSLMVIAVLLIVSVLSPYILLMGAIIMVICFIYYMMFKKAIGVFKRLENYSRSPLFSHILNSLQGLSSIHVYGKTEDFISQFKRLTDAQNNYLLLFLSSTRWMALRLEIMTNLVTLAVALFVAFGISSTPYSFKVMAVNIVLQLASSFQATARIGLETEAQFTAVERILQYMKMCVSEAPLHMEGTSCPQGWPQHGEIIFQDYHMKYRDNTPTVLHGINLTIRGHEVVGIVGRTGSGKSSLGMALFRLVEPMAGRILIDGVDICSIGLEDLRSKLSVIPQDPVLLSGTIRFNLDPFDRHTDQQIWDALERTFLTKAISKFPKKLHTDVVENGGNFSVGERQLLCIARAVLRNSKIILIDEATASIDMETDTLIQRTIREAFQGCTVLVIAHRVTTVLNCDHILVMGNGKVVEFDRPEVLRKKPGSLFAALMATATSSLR

For the compound `O=c1c(O)c(-c2ccccc2)oc2ccccc12` [3-Hydroxyflavone], the remaining activity at 100 µM in assay [1] was determined as 91.7 ± 1.1%.

With `Oc1cc(O)c2c(c1)O[C@H](c1ccc(O)c(O)c1)[C@@H](O)C2` [(+)-Catechin], in assay [1], the remaining activity at 100 µM is 91.9 ± 5.9%.

In assay [1], `Oc1cc(O)c2c(c1)O[C@H](c1cc(O)c(O)c(O)c1)[C@@H](O)C2` [(+)-Gallocatechin] came in with a remaining activity at 100 µM of 87.6 ± 27.6%.

`Oc1cc(O)c2c(c1)O[C@H](c1ccc(O)c(O)c1)[C@H](O)C2` [(−)-Epicatechin]: the remaining activity at 100 µM in assay [1] was determined as 85.2 ± 24.4%.

`O=C(O[C@@H]1Cc2c(O)cc(O)cc2O[C@@H]1c1cc(O)c(O)c(O)c1)c1cc(O)c(O)c(O)c1` [(−)-Epigallocatechin gallate] returned a remaining activity at 100 µM in assay [1] of 37.5 ± 7%.

As for `Oc1cc(O)c2c(c1)O[C@H](c1cc(O)c(O)c(O)c1)[C@H](O)C2` [(−)-Epigallocatechin], in assay [1], the remaining activity at 100 µM is 83.6 ± 29%.

On to `O=C(O[C@@H]1Cc2c(O)cc(O)cc2O[C@H]1c1cc(O)c(O)c(O)c1)c1cc(O)c(O)c(O)c1` [(−)-Gallocatechin gallate], for which the remaining activity at 100 µM in assay [1] was 24 ± 2.5%.

In the case of `O=c1cc(-c2ccc(O)cc2)oc2cc(O)cc(O)c12` [Apigenin], the remaining activity at 100 µM in assay [1] is 25.3 ± 12.5%.

On to `COc1cc(O)cc(O)c1C(=O)/C=C/c1ccccc1` [Cardamonin], for which the remaining activity at 100 µM in assay [1] turned out to be 73.4 ± 10.8%.

Take `O=C1c2c(O)cc(O)cc2O[C@H](c2cc(O)c(O)c(O)c2)[C@H]1O` [Dihydromyricetin]: the remaining activity at 100 µM in assay [1] came out at 56.9 ± 23.4%.

In assay [1], `O=c1c(O)c(-c2ccc(O)c(O)c2)oc2cc(O)ccc12` [Fisetin] displayed a remaining activity at 100 µM of 37.7 ± 1%.

Compound `O=c1c(O)c(-c2ccccc2)oc2cc(O)cc(O)c12` [Galangin] returned a remaining activity at 100 µM in assay [1] of 63.6 ± 5.9%.

With `O=c1c(O)c(-c2ccc(O)c(O)c2)oc2c(O)c(O)cc(O)c12` [Gossypetin], the remaining activity at 100 µM in assay [1] stood at 46 ± 8.4%.

Compound `COc1ccc([C@@H]2CC(=O)c3c(O)cc(O)cc3O2)cc1O` [Hesperetin] registered a remaining activity at 100 µM in assay [1] of 5.2 ± 26.9%.

On to `O=c1c(O)c(-c2ccc(O)cc2)oc2cc(O)cc(O)c12` [Kaempferol], for which the remaining activity at 100 µM in assay [1] came out at 42.8 ± 1%.

With `O=c1c(O)c(-c2ccc(O)cc2O)oc2cc(O)cc(O)c12` [Morin], the remaining activity at 100 µM in assay [1] was 41.5 ± 3.4%.

As for `O=C1C[C@@H](c2ccc(O)cc2)Oc2cc(O)cc(O)c21` [Naringenin], the remaining activity at 100 µM in assay [1] was 38.4 ± 31.6%.

`O=c1c(O)c(-c2ccc(O)c(O)c2)oc2cc(O)cc(O)c12` [Quercetin] displayed a remaining activity at 100 µM in assay [1] of 34.6 ± 18.3%.

In turn, `O=C1c2c(O)cc(O)cc2O[C@H](c2ccc(O)c(O)c2)[C@H]1O` [Taxifolin] registered a remaining activity at 100 µM in assay [1] of 43.2 ± 26%.

Compound `COc1cc(O)c(CC=C(C)C)c(O)c1C(=O)/C=C/c1ccc(O)cc1` [Xanthohumol] registered a remaining activity at 100 µM in assay [1] of 19.7 ± 13.6%.

Consider `O=c1cc(-c2ccc(O)c(O)c2)oc2cc(O)cc(O)c12` [compound 4, luteolin], for which the remaining activity at 100 µM in assay [2] came out at 0%.

`COc1ccc(-c2cc(=O)c3c(OC)c(OC)c(OC)c(OC)c3o2)cc1OC` [compound 5, nobiletin]: the remaining activity at 100 µM in assay [2] stood at 0%.

On to `O=c1c(O)c(-c2ccc(O)c(O)c2)oc2cc(O)c(O)c(O)c12` [compound 16, quercetagetin], for which, in assay [2], the remaining activity at 100 µM was determined as 0%.

Take `O=C(/C=C/c1ccc(O)cc1)c1c(O)cc(O)cc1O` [compound 19, naringenin chalcone]: the remaining activity at 100 µM in assay [2] worked out at 12.4 ± 4.2%.

Take `O=C(CCc1ccc(O)cc1)c1c(O)cc(O)cc1O` [compound 20, phloretin]: the remaining activity at 100 µM in assay [2] was 0.6 ± 3.9%.

For `O=C(O[C@@H]1Cc2c(O)cc(O)cc2O[C@H]1c1ccc(O)c(O)c1)c1cc(O)c(O)c(O)c1` [compound 23, (−)-catechin gallate], the remaining activity at 100 µM in assay [2] turned out to be 10.5 ± 6%.

Compound `O=c1c(-c2ccc(O)cc2)coc2cc(O)cc(O)c12` [genistein] came in with a half-maximal inhibitory concentration (IC50) in assay [3] of 61.5 µM.
